Source: patent publication US20110251188A1, “ACENAPHTHO HETEROCYCLE COMPOUNDS, CYCLODEXTRIN INCLUSION COMPOUNDS AND COMPLEXES, AND USES IN THE MANUFACTURES OF BH3 PROTEIN ANALOGUE, BCL-2 FAMILY PROTEIN INHIBITORS THEREOF” (DALIAN UNIVERSITY OF TECHNOLOGY, priority 2008, published 2011)
Values after ≈ are worked out from the molar mass of the structure shown.

How the values were obtained:
GST-Bcl-2 protein = molecular target: T1, GST-Bcl-2 protein (Homo sapiens, UniProt P10415); assay: fluorescence polarization assay, competitive binding against FAM-Bid peptide; details: Table 3; FAM-Bid competition; table does not say whether Bcl-2 or Mcl-1; read-out: Binding constant
T1 construct: fused on or other part: GST tag on Bcl-2
T1 sequence (P10415 whole entry, the tested form may be a part): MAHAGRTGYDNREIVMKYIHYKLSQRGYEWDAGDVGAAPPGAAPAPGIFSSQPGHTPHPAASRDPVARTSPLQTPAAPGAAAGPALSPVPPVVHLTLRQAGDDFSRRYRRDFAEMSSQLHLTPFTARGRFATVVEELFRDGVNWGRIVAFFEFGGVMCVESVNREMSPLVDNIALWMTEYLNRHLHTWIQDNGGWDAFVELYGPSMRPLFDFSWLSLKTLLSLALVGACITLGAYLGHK
Procedure: A Bid BH3 peptide (amino acids: 79-99: […]) having 21 amino acids was synthesized and marked with 6-carboxyfluorescein N-succinimidyl ester (FAM) as fluorescent tag (FAM-Bid) at the N-terminal. The reaction system used in the competitive binding experiment was GST-Bcl-2 protein (40 nM) or Mcl-1 protein, which was dissolved in the reaction buffer (100 mM K3PO4, pH 7.5; 100 μg/ml bovine γ albumin; 0.02% sodium azide) together with FAM-Bid polypeptide (5 nM). In a 96-well plate, 100 μL of the reaction system was added into each well. Then 1 μL different concentration of 3-thiomorpholinyl-8-oxo-8H-acenaphtho[1,2-b]pyrrole-9-carbonitrile mother solution to be detected dissolved in DMSO was added thereinto until the final concentration met the experimental design requirements. Meanwhile, two control groups were established, one with the reaction system only contains Bcl-2 or Mcl-1 and FAM-Bid (equivalent to 0% inhibition rate), the other with the reaction system only containing FAM-Bid peptide. After 4 hours of incubation, the 96-well plate was detected by enzyme-labelled meter. The fluorescent polarization value (mP) was tested at […]. Ki value was deduced according to calculation formula. The competitive binding constant between the compound and Bcl-2 was 310 nM.

[1] = phase solubility experiment (solubility in water before and after cyclodextrin inclusion or complexation); details: thermodynamic from solid, Solubility of compounds, Table 1, compound per se, before inclusion
[2] = molecular target: T2, interaction between Bcl-2 and Bax (Homo sapiens, UniProt P10415); assay: intracellular fluorescence polarization energy transfer (FRET), Hela cells transfected with Bcl-2-CFP and Bax-YFP; assay type: cell-based; details: for Time for which the compound interfered with the interaction between Bcl-2 and Bax: goes with the concentration of E11; for Concentration at which the compound interfered with the interaction between Bcl-2 and Bax: goes with the time of E12
T2 construct: expressed in transfected cells; host or cells: Hela cells
T2 sequence (P10415 whole entry): as the sequence (P10415 whole entry, the tested form may be a part) above
Procedure: 24 hours later (please refer to FIG. 2), the cells were washed with PBS for three times. The fluorescence value was detected by GENIOS fluorescence enzyme-labelled meter (TECAN, Swiss). In time-dependent experiment, the transfected cells were inoculated in a 6-well plate, after that, 40 μM of the compound was added thereinto. 3, 6 and 24 hours later (FIG. 3), the fluorescence intensities were detected by plate reader. As for the cell group in which only Bcl-2-CFP plasmid was transfected, the values at 475 nm emission wave length and 433 nm excitation wave length were recorded. As for the cell group in which only Bax-YFP plasmid was transfected, the values at 527 nm emission wave length and 505 nm excitation wave length were recorded. […] The ratio of fluorescence intensity at 527 nm and 475 nm emission wave lengths was FRET. The FRET for the control group in which the plasmid was solely transfected was set as 1.0. […] The cellular vitality was detected by MTT method.
Wherein the concentration and time meant that the detected compound interfered with the interaction between Bcl-2 and Bax at the concentration for the time period.

Mcl-1 = assay: Western blotting, compounds compared with cyclodextrin inclusion compounds and complexes, Example 24; assay type: cell-based; details: Table 8; 10 μM or equivalent of inclusion compound, 24 hours
Procedure: (§1) The cells were inoculated in a 6-well plate (2×10^5 cells/well). In the compound group, the compound 3-thiomorpholinyl-8-oxo-8H-acenaphtho[1,2-b]pyrrole-9-carbonitrile was dissolved into DMSO until the final concentration reached 10 μM. In the inclusion group, γ-cyclodextrin inclusion, which had been dissolved into water and was equivalent to 10 μM of the compound, was added thereinto. 24 hours later, the cells were washed with PBS for three times, then the cell sample was collected and cracked with 1×10^6/50 μl cell lysis solution (62.5 mM Tris-HCL pH 6.8; 2% SDS; 10% glycerol; 50 mM DTT; 0.01% bromphenol blue) at low temperature, then the solution was centrifuged and the protein supernatant was collected. The sample was boiled at 100° C. for 5 minutes and then was separated by electrophoresis on 12% SDS-PAGE and transferred. The interest protein was detected by the corresponding antibody. The expression of the interest protein in the cells was detected by horseradish peroxidase-labeled secondary antibodies in combination with ECL coloration method. […] The concentration of the protein bands in the Western figures were carried out semiquantitative analysis and normalization treatment with KODAK Gel Logic 1500 imaging system software.

Bcl-2 = assay: as above; assay type: cell-based; details: Table 9; 10 μM or equivalent of inclusion compound, 24 hours
Procedure: as §1

Bax protein = assay: co-localization between Bax protein and chondriosome, Bax-YFP transfected MCF-7 cells; assay type: cell-based; details: for Time for which the compound drove the BAX to shift towards the chondriosome: goes with the concentration of E14; for Concentration at which the compound drove the BAX to shift towards the chondriosome: goes with the time of E15
Procedure: 5 ng of Bax-YFP plasmid was transfected into MCF-7 cells by using calcium phosphate coprecipitation method, 24 hours later, the cells were inoculated in a 6-well plate (0.2×10^6 cells/well), and 10 μM of the compound 3-thiomorpholinyl-8-oxo-8 H-acenaphtho[1,2-b]pyrrole-9-carbonitrile to be detected was added thereinto. 6 hours later, the cells were washed with PBS and hatched away from light with 50 nM Mito Tracker Red CMXRos (chondriosome specific probes; red) for 10 minutes. Then the cells were washed with PBS for three times, and the fluorescent image was scanned with Radiance2000 laser confocal microscopy (Bio-Rad, USA). Meanwhile, dual channel scanning was carried out, one channel was used to scan the green fluorescence of Bax-YFP, and the other channel was used to scan the red fluorescence of the CMXRos probe for indicating the chondriosome. […] When the Bax protein was localized on the chondriosome, the green and red fluorescence was superimposed into orange, as shown in FIG. 4.
Other 8 compounds were detected by the same experimental method as described above. […] Wherein the concentration and time meant that the detected compound simulated the BH3-only protein and driven the BAX to shift towards the chondriosome at the concentration for the time period.

MCF-7 cells = assay: cytotoxicity depending on BAX/BAK, MTT, MCF-7 cells with or without BAX/BAK interfering plasmid; assay type: cell-based
Procedure: 3 ng of BAX/BAK interfering plasmid was transfected into MCF-7 cells by using calcium phosphate coprecipitation method, 24 hours later, the cells were collected. The expressions after the BAX and BAK proteins interfered with RNA was detected by Western, and the cell groups without plasmid transfection were treated similarly and were set as the control group. The transfected cells were inoculated in a 96-well plate (1×10^5 cells/well), the control experiment of the cell group without plasmid transfection was carried out in parallel. The compound 3-thiomorpholinyl-8-oxo-8 H-acenaphtho[1,2-b]pyrrole-9-carbonitrile to be detected was added thereinto according to the concentration gradient designed before the experiment. 48 hours later, the cellular vitality was detected by MTT. The experimental results were shown in FIG. 6, Gossypol as nonspecific BH3 analogue was treated in parallel.

Structure (SMILES) | Ki (GST-Bcl-2 protein) | solubility [1] | Time for which the compound interfered with the interaction between Bcl-2 and Bax [2] | Concentration at which the compound interfered with the interaction between Bcl-2 and Bax [2] | downregulation of Mcl-1 protein, semiquantitative analysis (band concentration, control = 1) (Mcl-1) | downregulation of Bcl-2 protein, semiquantitative analysis (band concentration, control = 1) (Bcl-2) | Time for which the compound drove the BAX to shift towards the chondriosome (Bax protein) | Concentration at which the compound drove the BAX to shift towards the chondriosome (Bax protein) | dependence of cytotoxicity on BAX/BAK (MCF-7 cells)
N#CC1=C2C(=NC1=O)c1c(Sc3ccc(N)cc3)ccc3c(Sc4ccc(N)cc4)ccc2c13 [3,6-di(4-aminophenylthio)-8-oxo-8 H-acenaphtho[1,2-b]pyrrole-9-carbonitrile] | 7 nM | 0.31 µM (≈ 0.148 µg/mL) | 2 h | 1.0 µM | 0.75 | 0.75 | 6 h | 5.0 µM | absolute dependence on BAX/BAK
N#CC1=C2C(=NC1=O)c1c(Sc3ccc(N)cc3)ccc3cccc2c13 [6-(4-aminophenylthio)-8-oxo-8H-acenaphtho[1,2-b]pyrrole-9-carbonitrile] | 20 nM | 0.28 µM (≈ 0.099 µg/mL) | 2 h | 0.2 µM | 0.70 | 0.74 | 6 h | 5.0 µM | absolute dependence on BAX/BAK
N#CC1=C2C(=NC1=O)c1cccc3cccc2c13 [8-oxo-8H-acenaphtho[1,2-b]pyrrole-9-carbonitrile] | 0.3 nM | 0.12 µM (≈ 0.0276 µg/mL) | 2 h | 0.1 µM | 0.77 | 0.69 | 3 h | 1.0 µM | absolute dependence on BAX/BAK

Further lines, with some results ahead:

Ki (GST-Bcl-2 protein) | solubility [1] | Time for which the compound interfered with the interaction between Bcl-2 and Bax [2] | Concentration at which the compound interfered with the interaction between Bcl-2 and Bax [2] | Structure (SMILES) | downregulation of Mcl-1 protein, semiquantitative analysis (band concentration, control = 1) (Mcl-1) | downregulation of Bcl-2 protein, semiquantitative analysis (band concentration, control = 1) (Bcl-2) | Time for which the compound drove the BAX to shift towards the chondriosome (Bax protein) | Concentration at which the compound drove the BAX to shift towards the chondriosome (Bax protein) | dependence of cytotoxicity on BAX/BAK (MCF-7 cells)
5 nM | 0.16 µM (≈ 0.0967 µg/mL) | 2 h | 1.0 µM | N#CC1=C2C(=NC1=O)c1c(Sc3ccc(Br)cc3)ccc3c(Sc4ccc(Br)cc4)ccc2c13 [3,6-di(4-bromophenylthio)-8-oxo-8H-acenaphtho[1,2-b]pyrrole-9-carbonitrile] | 0.69 | 0.69 | 6 h | 5.0 µM | absolute dependence on BAX/BAK
17 nM |  | 2 h | 0.5 µM | N#CC1=C2C(=NC1=O)c1cccc3c(Sc4ccc(Br)cc4)ccc2c13 [3-(4-bromophenylthio)-8-oxo-8H-acenaphtho[1,2-b]pyrrole-9-carbonitrile] | 0.69 | 0.67 | 6 h | 1.0 µM | absolute dependence on BAX/BAK
